{"source": "patent US20100234433A1", "about": "“GLYCOGEN PHOSPHORYLASE INHIBITOR COMPOUND AND PHARMACEUTICAL COMPOSITION THEREOF” (priority 2007, published 2010)", "key": {"[1]": {"target": "T1, human liver glycogen phosphorylase a (HLGPa) (Homo sapiens, UniProt P06737)", "T1 construct": "creating a full-length cDNA fused at the 5′ end to codons for methionine-glycine-alanine-histidine; 6x histidine tag (leader Met-Gly-Ala-His6-Gly-Gly) (N); Tev protease cleavage site (Glu-Asn-Leu-Tyr-Phe-Gln-Gly-Gly) (N); made in house; host or cells: E. coli (bacterial expression plasmid pTXK1007LTev)", "T1 sequence (P06737 1-847)": "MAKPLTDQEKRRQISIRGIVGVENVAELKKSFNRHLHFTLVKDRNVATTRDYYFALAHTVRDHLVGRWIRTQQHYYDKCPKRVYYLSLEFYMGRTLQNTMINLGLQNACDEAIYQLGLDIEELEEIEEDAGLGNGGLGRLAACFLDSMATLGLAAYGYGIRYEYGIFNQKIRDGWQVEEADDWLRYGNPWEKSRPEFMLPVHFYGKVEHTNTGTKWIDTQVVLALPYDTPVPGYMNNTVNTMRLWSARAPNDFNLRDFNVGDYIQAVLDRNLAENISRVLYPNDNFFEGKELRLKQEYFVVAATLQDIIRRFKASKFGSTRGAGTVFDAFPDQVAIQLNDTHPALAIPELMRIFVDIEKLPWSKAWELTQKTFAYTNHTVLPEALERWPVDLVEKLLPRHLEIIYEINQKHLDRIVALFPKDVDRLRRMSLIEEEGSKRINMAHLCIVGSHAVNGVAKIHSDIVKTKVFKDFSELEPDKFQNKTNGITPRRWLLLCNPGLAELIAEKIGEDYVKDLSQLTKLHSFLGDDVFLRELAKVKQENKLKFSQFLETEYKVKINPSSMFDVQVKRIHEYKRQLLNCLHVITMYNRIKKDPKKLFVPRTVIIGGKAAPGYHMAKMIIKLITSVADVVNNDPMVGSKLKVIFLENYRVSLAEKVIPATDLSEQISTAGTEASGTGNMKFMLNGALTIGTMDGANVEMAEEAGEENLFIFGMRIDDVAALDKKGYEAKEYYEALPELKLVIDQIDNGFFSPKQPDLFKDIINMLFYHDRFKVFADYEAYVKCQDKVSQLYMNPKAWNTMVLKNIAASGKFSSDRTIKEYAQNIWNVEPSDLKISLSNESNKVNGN", "assay": "Human liver glycogen phosphorylase a enzymatic activity assay", "format": "biochemical", "settings": "15 nM HLGPa, coupled resorufin fluorescence readout; assay run with and without 10 mM glucose, condition of the value not stated", "procedure": "The purified glycogen phosphorylase (GP) enzyme, wherein glycogen phosphorylase is in the activated “a” state, referred to as human liver glycogen phosphorylase a (HLGPa), can be obtained according to the following procedures.\nFrozen purified glycogen phosphorylase (HLGPb) was thawed in at 4° C. then dialyzed overnight into 50 mM HEPES, 100 mM NaCl, pH 7.4. 15 mg of the dialyzed HLGPb, 3 mM ATP and 5 mM MgCl2 was incubated with 500 μl of the prepared Affi-Gel immobilized phosphorylase kinase beads equilibrated with 50 mM HEPES, 100 mM NaCl, pH 7.4. The degree of phosphorylation was monitored by following the increase in activity at 10 minute intervals using the assay system outlined below. […] MgCl2, 3.5 mM KH2PO4, 0.5 mM DTT, 0.4 mg/mL glycogen, 7.5 mM Glucose, 0.50 mM β-nicotinamide adenine dinucleotide (β-NAD), 3 U/mL phosphoglucomutase, and 5 U/mL glucose-6-phosphate dehydrogenase, Activity was monitored by following the reduction of NAD^+ at 340 nm. […]\nAn enzymatic assay was developed to measure the response of the activated form of glycogen phosphorylase (HLGPa) to small molecule (<1000 Da.) compounds. […] The change in fluorescence due to product formation was measured on a fluorescence plate reader (Molecular Devices SpectraMax M2) with excitation at 560 nm and emission at 590 nm."}, "male CD rats": {"system": "male CD rats", "assay": "In vivo glucagon challenge model", "set-up": "species or system rat", "settings": "glucagon 10 ug/kg + Sandostatin i.v. 2 hr after dosing, serum glucose 0-20 min", "procedure": "Jugular vein cannulated male CD rats (220-260 g) (Charles Rivers, Raleigh, N.C.) were received 1-2 days after cannulation, housed individually on Alpha-Dri™ bedding (Shepherd Specialty Papers, Inc., Kalamazoo, Mich.) with free access to food (Lab Diet 5001, PMI Nutrition International, Brentwood, Mo.) and water and maintained on a 12 h light/dark cycle at 21° C. and 50% relative humidity for 3-4 days prior to the glucagon challenge studies. On the day of the study, the rats were sorted by body weight into treatment groups (N=4-5) and housed individually in shoe box cages with clean Alpha-dri bedding. The cannula lines were opened by removal of 0.2 ml blood and flushed with 0.2 ml sterile saline. After a one hour acclimation, blood samples were collected to determine basal glucose and the rats were orally dosed with vehicle (5% DMSO: 30% Solutol HS15: 20% PEG400: 45% 25 mM N-methylglucamine) or drug (5 ml/kg). Two hr after drug dosing, a time zero blood sample (0.4 ml) was collected for determination of glucose and the rats were dosed through the jugular vein with Sandostatin, 0.5 mg/kg, (Novartis Pharmaceuticals Corp., East Hanover, N.J.) and glucagon, 10 ug/kg (Bedford Laboratories, Bedford, Ohio). Blood samples were collected after 10 and 20 min for glucose determination. Whole blood was placed in a Terumo Capiject blood collection tube (Terumo Medical. Corp., Elkton, Md.), allowed to sit at room temperature for 20-30 minutes and then centrifuged (3,000×G) to obtain serum. Serum levels of glucose were determined using an Olympus AU640™ clinical chemistry immuno-analyzer (Olympus America Inc., Melville, N.Y.). The % reduction (% R) of the vehicle glucose AUG was calculated for each drug treatment using the formula % reduction=100*1−(AUG drug/AUC vehicle), where AUG was calculated from serum glucose values using the equation AUG=(T0+T10)/2*10+(T10+T20)/2*10−(T0*20)."}}, "note": "pIC50: −log10 of the molar value."}
{"smiles": "COCc1cc(C)c(NC(=O)Nc2cc(-c3ccc(OC)nc3)ccc2C(=O)N[C@H](C(=O)O)[C@@H](C)OC(C)(C)C)c(C)c1", "note": "[Example 1, O-(1,1-Dimethylethyl)-N-({2-{[({2,6-dimethyl-4-[(methyloxy)methyl]phenyl}amino)carbonyl]amino}-4-[6-(methyloxy)-3-pyridinyl]phenyl}carbonyl)-L-threonine]", "values": [{"measurement": "pIC50", "setting": "[1]", "result": 8.30}, {"measurement": "% R (% reduction of the vehicle glucose AUC)", "setting": "male CD rats; 0.5 mg/kg oral", "result": 32, "unit": "%"}, {"measurement": "% R (% reduction of the vehicle glucose AUC)", "setting": "male CD rats; 2 mg/kg oral", "result": 53, "unit": "%"}, {"measurement": "% R (% reduction of the vehicle glucose AUC)", "setting": "male CD rats; 5 mg/kg oral", "result": 63, "unit": "%"}, {"measurement": "% R (% reduction of the vehicle glucose AUC)", "setting": "male CD rats; 15 mg/kg oral", "result": 70, "unit": "%"}]}
